Assays:
[1] = test system: streptozotocin-induced diabetic rats; assay: Sucrose-challenged streptozotocin-induced diabetic rats (STZ-S), antihyperglycemic activity; assay type: in vivo, rat (Sprague Dawley); conditions: for activity in STZ model: summary statement
Experimental: Male albino rats of Sprague Dawley strain of body weight […] were selected for this study. Streptozotocin (Sigma, USA) was dissolved in 100 mM citrate buffer pH 4.5 and calculated amount of the fresh solution was injected to overnight fasted rats (45 mg/kg) intraperitoneally. Blood glucose level was checked 48 h later by glucostrips and animals showing blood glucose values between 144 to 270 mg/dl (8 to 15 mM) were included in the experiment and termed diabetic. The diabetic animals were divided into groups consisting of five to six animals in each group. Animals of experimental groups were administered suspension of the desired test samples orally (made in 1.0% gum acacia) at a dose of 100-mg/kg-body weight. Animals of control group were given an equal amount of 1.0% gum acacia. A sucrose load of 2.5-g/kg body weight was given after 30 minutes of compound administration. After 30 minutes of post sucrose load blood glucose level was again checked by glucostrips at 30, 60, 90, 120, 180, 240, 300 min and at 24 h, respectively. Animals not found diabetic after 24 hours post treatment of the test sample were not considered and omitted from the calculations and termed as non-responders. […] Food but not water was withheld from the cages during the experimentation. Comparing the AUC of experimental and control groups determined the percent antihyperglycemic activity. Statistical comparison between groups was made by Student's ‘t’ test.

[2] = test system: sucrose loaded rats; assay: Sucrose loaded rat model (SLM), antihyperglycemic activity; assay type: in vivo, rat (Charles Foster/Wistar); conditions: for inhibition in vivo at 100 mg/kg: Rattus norvegicus, 2 h, 100 mg/kg oral, sucrose load 10.0 g/kg, AUC vs control, 30-120 min, read-out: % Fall in blood glucose levels SLM; for activity in SLM model: summary statement
Experimental: Male albino rats of Charles Foster/Wistar strain of average body weight 160±20 g were selected for this study. The blood glucose level of each animal was checked by glucometer using glucostrips (Boehringer Mannheim) after 16 h starvation. Animals showing blood glucose levels between 3.33 to 4.44 mM (60 to 80 mg/dl) were divided into groups of five to six animals in each. Animals of experimental group were administered suspension of the desired synthetic compound orally (made in 1.0% gum acacia) at a dose of 100-mg/kg-body weight. Animals of control group were given an equal amount of 1.0% gum acacia. A sucrose load (10.0 g/kg) was given to each animal orally exactly after 30 min post administration of the test sample/vehicle. Blood glucose profile of each rat was again determined at 30, 60, 90 and 120 min post administration of sucrose by glucometer. Food but not water was withheld from the cages during the course of experimentation. Quantitative glucose tolerance of each animal was calculated by Area Under Curve (AUC) method (Prism Software). Comparing the AUC of experimental and control groups determined the percentage antihyperglycemic activity. Statistical comparison was made by Dunnett's test.

[3] = 100 mg/kg oral, sucrose load 2.5 g/kg, AUC vs control

Compound | % Fall in blood glucose levels STZ-S 24 h [1, 3] [%] | activity in STZ model [1] | inhibition in vivo at 100 mg/kg [2] [%] | activity in SLM model [2] | % Fall in blood glucose levels STZ-S 5 h ([1]; 100 mg/kg oral, sucrose load 2.5 g/kg, AUC vs control, 5 h) [%]
CC(C)(C)NCC(O)COc1ccc(C(=O)/C=C/c2ccc3c(c2)OCO3)cc1 (centres unmarked) [Compound 34, 4′-[^3-tert-Butylamino-2-hydroxy-propoxy]-3,4-methylenedioxy-chalcone] | 23.0 | significant results | 21.1 | significant results | –
O=C1NC(=O)/C(=C\c2ccc(OCCCCCOc3cccc(C(=O)/C=C/c4ccc5c(c4)OCO5)c3)cc2)S1 [Compound 46, 3,4-Methylenedioxy-3′-{5-[4-(thiazolidin-2,4-dione-5-ylidinemethyl)-phenoxy]-pentyloxy}-chalcone] | 7.18 | – | 13.4 | – | 11.8
COc1ccc(/C=C/C(=O)c2ccc(OCC(O)CN3CCN(c4ccccc4)CC3)cc2)cc1OC (centres unmarked) [Compound 18, 3,4-Dimethoxy-4′-[2-hydroxy-3-(4-phenylpiperazin-1-yl)-propoxy]-chalcone] | 20.3 | significant results | 15.4 | significant results | –
